Values joined by “and” are separate entries in the source; they are usually repeats but may differ in a detail not shown here. Equal values may be shown once. Toxic doses and inconclusive results are not listed.
System: L1210 leukemia ip in BDF1 mice, survival T/C
Assay: NCI In Vivo Anticancer Drug Screen. Data for tumor model L1210 Leukemia (intraperitoneal) in B6D2F1 (BDF1) mice
Conditions: higher = longer survival
Summary of the method: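 Tumor was transplanted into mice, which were then dosed with test compound or vehicle alone. Survival was recorded for each group, and the treated figure was expressed relative to the control figure.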

Compound: CN(N=O)C(=O)NC(C=O)C(O)C(O)C(O)CO (stereo not drawn)
- T/C (endpoint: mean survival time, dose: 3.5 mg/kg/injection, schedule: Q#A X Z (ip), vehicle: saline): 108 % of control
- T/C (endpoint: mean survival time, dose: 4.0 mg/kg/injection, schedule: Q#A X Z (ip), vehicle: saline): 105 % of control
- T/C (endpoint: mean survival time, dose: 5.5 mg/kg/injection, schedule: Q#A X Z (ip), vehicle: saline): 116 % of control
- T/C (endpoint: mean survival time, dose: 6.0 mg/kg/injection, schedule: Q01DX Z (ip), vehicle: saline): 105 % of control
- T/C (endpoint: mean survival time, dose: 6.0 mg/kg/injection, schedule: Q#A X Z (ip), vehicle: saline): 103 % of control
- T/C (endpoint: mean survival time, dose: 8.0 mg/kg/injection, schedule: Q01DX Z (ip), vehicle: saline): 97 % of control
- T/C (endpoint: mean survival time, dose: 8.5 mg/kg/injection, schedule: Q#A X Z (ip), vehicle: saline): 118 % of control
- T/C (endpoint: mean survival time, dose: 9.0 mg/kg/injection, schedule: Q#A X Z (ip), vehicle: saline): 106 % of control
- T/C (endpoint: mean survival time, dose: 12.0 mg/kg/injection, schedule: Q01DX Z (ip), vehicle: saline): 105 % of control and 106 % of control
- T/C (endpoint: mean survival time, dose: 12.5 mg/kg/injection, schedule: Q01DX009 (ip), vehicle: saline): 95 % of control and 101 % of control
- T/C (endpoint: mean survival time, dose: 12.5 mg/kg/injection, schedule: Q01DX Z (ip), vehicle: saline): 96 % of control and 101 % of control
- T/C (endpoint: mean survival time, dose: 18.0 mg/kg/injection, schedule: Q01DX Z (ip), vehicle: saline): 108 % of control
- T/C (endpoint: mean survival time, dose: 24.5 mg/kg/injection, schedule: Q01DX Z (ip), vehicle: water): 111 % of control
- T/C (endpoint: mean survival time, dose: 25.0 mg/kg/injection, schedule: Q01DX009 (ip), vehicle: saline): 101 % of control and 103 % of control
- T/C (endpoint: mean survival time, dose: 25.0 mg/kg/injection, schedule: Q01DX Z (im), vehicle: saline): 109 % of control
- T/C (endpoint: mean survival time, dose: 26.0 mg/kg/injection, schedule: Q01DX Z (ip), vehicle: saline): 118 % of control
- T/C (endpoint: mean survival time, dose: 26.0 mg/kg/injection, schedule: Q01DX Z (sc), vehicle: saline): 110 % of control
- T/C (endpoint: mean survival time, dose: 30.0 mg/kg/injection, schedule: Q#A X Z (ip), vehicle: saline): 112 % of control
- T/C (endpoint: mean survival time, dose: 34.0 mg/kg/injection, schedule: Q03DX005 (ip), vehicle: saline): 103 % of control
- T/C (endpoint: mean survival time, dose: 36.0 mg/kg/injection, schedule: Q03DX003 (ip), vehicle: saline): 118 % of control
- T/C (endpoint: mean survival time, dose: 40.0 mg/kg/injection, schedule: Q01DX009 (iv), vehicle: saline): 120 % of control
- T/C (endpoint: mean survival time, dose: 40.0 mg/kg/injection, schedule: Q01DX Z (ip), vehicle: saline): 151 % of control
- T/C (endpoint: mean survival time, dose: 40.0 mg/kg/injection, schedule: Q01DX Z (sc), vehicle: saline): 106 % of control and 107 % of control and 112 % of control
- T/C (endpoint: mean survival time, dose: 50.0 mg/kg/injection, schedule: Q01DX009 (ip), vehicle: saline): 110 % of control and 111 % of control
- T/C (endpoint: mean survival time, dose: 50.0 mg/kg/injection, schedule: Q01DX Z (im), vehicle: saline): 100 % of control
- T/C (endpoint: mean survival time, dose: 52.0 mg/kg/injection, schedule: Q03DX005 (ip), vehicle: saline): 108 % of control
- T/C (endpoint: mean survival time, dose: 60.0 mg/kg/injection, schedule: Q01DX009 (iv), vehicle: saline): 111 % of control
- T/C (endpoint: mean survival time, dose: 60.0 mg/kg/injection, schedule: Q01DX Z (ip), vehicle: saline): 160 % of control
- T/C (endpoint: mean survival time, dose: 60.0 mg/kg/injection, schedule: Q01DX Z (iv), vehicle: saline): 115 % of control
- T/C (endpoint: mean survival time, dose: 78.0 mg/kg/injection, schedule: Q03DX005 (ip), vehicle: saline): 118 % of control
- T/C (endpoint: mean survival time, dose: 78.0 mg/kg/injection, schedule: Q03DX 5 (iv), vehicle: saline): 117 % of control
- T/C (endpoint: mean survival time, dose: 80.0 mg/kg/injection, schedule: Q03DX004 (ip), vehicle: saline): 151 % of control
- T/C (endpoint: mean survival time, dose: 80.0 mg/kg/injection, schedule: Q07DX001 (ip), vehicle: saline): 124 % of control
- T/C (endpoint: mean survival time, dose: 90.0 mg/kg/injection, schedule: Q01DX 1 (iv), vehicle: saline): 118 % of control
- T/C (endpoint: mean survival time, dose: 90.0 mg/kg/injection, schedule: Q01DX009 (iv), vehicle: saline): 115 % of control
- T/C (endpoint: mean survival time, dose: 90.0 mg/kg/injection, schedule: Q01DX Z (ip), vehicle: saline): 152 % of control and 166 % of control
- T/C (endpoint: mean survival time, dose: 90.0 mg/kg/injection, schedule: Q01DX Z (iv), vehicle: saline): 121 % of control
- T/C (endpoint: mean survival time, dose: 90.0 mg/kg/injection, schedule: Q03DX 5 (iv), vehicle: saline): 114 % of control
- T/C (endpoint: mean survival time, dose: 90.0 mg/kg/injection, schedule: Q07DX 2 (iv), vehicle: saline): 106 % of control
- T/C (endpoint: mean survival time, dose: 99.5 mg/kg/injection, schedule: Q01DX Z (ip), vehicle: water): 111 % of control
- T/C (endpoint: mean survival time, dose: 100.0 mg/kg/injection, schedule: Q01DX009 (ip), vehicle: saline): 101 % of control and 120 % of control
- T/C (endpoint: mean survival time, dose: 100.0 mg/kg/injection, schedule: Q01DX Z (im), vehicle: saline): 120 % of control and 124 % of control
- T/C (endpoint: mean survival time, dose: 100.0 mg/kg/injection, schedule: Q01DX Z (oral), vehicle: saline): 111 % of control
- T/C (endpoint: mean survival time, dose: 104.0 mg/kg/injection, schedule: Q01DX Z (oral), vehicle: saline): 101 % of control
- T/C (endpoint: mean survival time, dose: 120.0 mg/kg/injection, schedule: Q01DX001 (ip), vehicle: saline): 119 % of control
- T/C (endpoint: mean survival time, dose: 120.0 mg/kg/injection, schedule: Q01DX 1 (iv), vehicle: saline): 112 % of control
- T/C (endpoint: mean survival time, dose: 120.0 mg/kg/injection, schedule: Q07DX 2 (iv), vehicle: saline): 102 % of control
- T/C (endpoint: mean survival time, dose: 125.0 mg/kg/injection, schedule: Q01DX001 (ip), vehicle: saline): 114 % of control
- T/C (endpoint: mean survival time, dose: 135.0 mg/kg/injection, schedule: Q01DX Z (iv), vehicle: saline): 95 % of control
- T/C (endpoint: mean survival time, dose: 135.0 mg/kg/injection, schedule: Q01DX Z (sc), vehicle: saline): 108 % of control and 91 % of control and 92 % of control
- T/C (endpoint: mean survival time, dose: 160.0 mg/kg/injection, schedule: Q01DX Z (oral), vehicle: saline): 101 % of control
- T/C (endpoint: mean survival time, dose: 180.0 mg/kg/injection, schedule: Q01DX 1 (iv), vehicle: saline): 109 % of control
- T/C (endpoint: mean survival time, dose: 180.0 mg/kg/injection, schedule: Q03DX Z (ip), vehicle: saline): 151 % of control
- T/C (endpoint: mean survival time, dose: 180.0 mg/kg/injection, schedule: Q07DX 2 (iv), vehicle: saline): 111 % of control
- T/C (endpoint: mean survival time, dose: 182.0 mg/kg/injection, schedule: Q07DX Z (ip), vehicle: saline): 123 % of control
- T/C (endpoint: mean survival time, dose: 200.0 mg/kg/injection, schedule: Q01DX009 (ip), vehicle: saline): 90 % of control
- T/C (endpoint: mean survival time, dose: 200.0 mg/kg/injection, schedule: Q01DX Z (im), vehicle: saline): 91 % of control
- T/C (endpoint: mean survival time, dose: 200.0 mg/kg/injection, schedule: Q01DX Z (ip), vehicle: saline): 87 % of control
- T/C (endpoint: mean survival time, dose: 200.0 mg/kg/injection, schedule: Q01DX Z (oral), vehicle: saline): 105 % of control
- T/C (endpoint: mean survival time, dose: 240.0 mg/kg/injection, schedule: Q01DX Z (oral), vehicle: saline): 101 % of control
- T/C (endpoint: mean survival time, dose: 250.0 mg/kg/injection, schedule: Q01DX001 (ip), vehicle: saline): 115 % of control
- T/C (endpoint: mean survival time, dose: 270.0 mg/kg/injection, schedule: Q01DX 1 (iv), vehicle: saline): 98 % of control
- T/C (endpoint: mean survival time, dose: 270.0 mg/kg/injection, schedule: Q07DX 2 (iv), vehicle: saline): 106 % of control
- T/C (endpoint: mean survival time, dose: 400.0 mg/kg/injection, schedule: Q01DX Z (oral), vehicle: saline): 117 % of control
- T/C (endpoint: mean survival time, dose: 405.0 mg/kg/injection, schedule: Q01DX001 (ip), vehicle: saline): 108 % of control and 89 % of control
- T/C (endpoint: mean survival time, dose: 420.0 mg/kg/injection, schedule: Q07DX Z (ip), vehicle: saline): 93 % of control
- T/C (endpoint: mean survival time, dose: 500.0 mg/kg/injection, schedule: Q01DX001 (ip), vehicle: saline): 117 % of control
- T/C (endpoint: mean survival time, dose: 540.0 mg/kg/injection, schedule: Q01DX Z (oral), vehicle: saline): 95 % of control
- T/C (endpoint: mean survival time, dose: 800.0 mg/kg/injection, schedule: Q01DX Z (oral), vehicle: saline): 105 % of control
- T/C (endpoint: mean survival time, dose: 1000.0 mg/kg/injection, schedule: Q01DX001 (ip), vehicle: saline): 97 % of control
- T/C (endpoint: median survival time, dose: 25.0 mg/kg/injection, schedule: Q01DX017 (ip), vehicle: water): 122 % of control
- T/C (endpoint: median survival time, dose: 50.0 mg/kg/injection, schedule: Q01DX017 (ip), vehicle: water): 150 % of control

Compound: CCCCCCCCCCCCCCCC(=O)NOCc1cscn1
- T/C (endpoint: mean survival time, dose: 100.0 mg/kg/injection, schedule: Q01DX001 (ip), vehicle: other): 104 % of control
- T/C (endpoint: mean survival time, dose: 100.0 mg/kg/injection, schedule: Q04DX003 (ip), vehicle: acetone): 93 % of control
- T/C (endpoint: mean survival time, dose: 200.0 mg/kg/injection, schedule: Q01DX001 (ip), vehicle: other): 94 % of control
- T/C (endpoint: mean survival time, dose: 200.0 mg/kg/injection, schedule: Q04DX003 (ip), vehicle: acetone): 93 % of control
- T/C (endpoint: mean survival time, dose: 400.0 mg/kg/injection, schedule: Q01DX001 (ip), vehicle: other): 98 % of control
- T/C (endpoint: mean survival time, dose: 400.0 mg/kg/injection, schedule: Q04DX003 (ip), vehicle: acetone): 98 % of control

Compound: O=S(=O)(Cl)OO/C=C\OOS(=O)(=O)Cl
- T/C (endpoint: mean survival time, dose: 100.0 mg/kg/injection, schedule: Q01DX001 (ip), vehicle: saline): 101 % of control
- T/C (endpoint: mean survival time, dose: 200.0 mg/kg/injection, schedule: Q01DX001 (ip), vehicle: saline): 108 % of control

Compound: COC(=O)c1cc(NC(=O)Nc2ccc(F)c([N+](=O)[O-])c2)cc(C(=O)OC)c1
- T/C (endpoint: mean survival time, dose: 100.0 mg/kg/injection, schedule: Q01DX009 (ip), vehicle: Klucel (hydroxypropylcellulose) (HPC)): 95 % of control
- T/C (endpoint: mean survival time, dose: 200.0 mg/kg/injection, schedule: Q01DX009 (ip), vehicle: Klucel (hydroxypropylcellulose) (HPC)): 93 % of control
- T/C (endpoint: mean survival time, dose: 400.0 mg/kg/injection, schedule: Q01DX009 (ip), vehicle: Klucel (hydroxypropylcellulose) (HPC)): 96 % of control
